Test results taken from patent publication US20260193170A1 (University of Copenhagen, priority 2022, published 2026).

Target: T1, human Keap1 Kelch domain (Homo sapiens, UniProt Q14145)
T1 construct: human Keap1 Kelch domain (residue 321-609, UniProt Q14145); made in house; host or cells: Escherichia coli BL21 (DE3) pLysS, pRSET A vector
Assay: Fluorescence polarization (FP) competition assay, Cy5-Nrf2 peptide probe
Type: binding
Details: heterologous competition FP; Keap1 Kelch 14 nM, Cy5-Nrf2 probe 3 nM, 4% DMSO; mean ± SEM
Description: The binding affinities between the fluorescent peptide probe Cy5-Nrf2 (SEQ: Cy5-[…]-NH2) and the human Keap1 Kelch domain were determined as Kd values by saturation binding experiments, where increasing concentrations of Keap1 (0-300 nM) were added to a fixed concentration of peptide probe (3 nM). The assay was performed in a 1× HBSTET buffer (10 mM HEPES, 150 mM NaCl, 0.005% Tween20, 3 mM ethylenediaminetetraacetic acid (EDTA), 1 mM TCEP, pH=7.4) using black flat-bottom 384-well plates (Corning Life Sciences, NY), a volume of 30 μL/well, and a final DMSO concentration of 4% or 8%. The assay plate was spun down to ascertain proper mixing and removal of potential air bubbles and incubated for 10-15 min at room temperature before measuring the FP levels on a Safire2 plate reader (Tecan, Mannedorf, Switzerland). The g-factor was adjusted at each experiment so that a series of three blank wells containing probe but no Keap1 Kelch defined the baseline FP value. The Cy5-Nrf2 probe was measured at excitation/emission values of 635:670 nm. The FP values were fitted to the one-site specific binding equation: Y=Bmax×X/(Kd+X), with Bmax being the maximal FP value, X the Keap1 Kelch concentration, and Y the variable FP values. The Kd values were derived from the resulting binding saturation curve as being equal to the Keap1 Kelch concentration, where the curve is half-saturated.
The affinities between nonfluorescent small molecule Keap1 inhibitors and Keap1 Kelch were determined as Ki values in a heterologous competition FP binding assay. This was done by adding increasing concentration of test compound (2-fold serial dilutions, 12 concentrations tested per inhibition curve as duplicates) to a fixed concentration of Keap1 Kelch (14 nM) and the Cy5-Nrf2 peptide probe (3 nM) in the same HBSTET buffer and conditions as described above (final DMSO concentrations were 4%). FP values were fitted to the equation Y=Bottom+(Top−Bottom)/[1+(10^HillSlope×(log IC50−X))], where X is the logarithmic value of compound concentration. Hereby, the IC50 value was obtained, which together with the […] value and probe and Keap1 Kelch concentrations was used to calculate the theoretical competitive inhibition constant, the Ki value. 43 Ki values are shown as mean±SEM (standard error of mean) if based on two or more individual measurements.

T1 sequence (Q14145 321-609): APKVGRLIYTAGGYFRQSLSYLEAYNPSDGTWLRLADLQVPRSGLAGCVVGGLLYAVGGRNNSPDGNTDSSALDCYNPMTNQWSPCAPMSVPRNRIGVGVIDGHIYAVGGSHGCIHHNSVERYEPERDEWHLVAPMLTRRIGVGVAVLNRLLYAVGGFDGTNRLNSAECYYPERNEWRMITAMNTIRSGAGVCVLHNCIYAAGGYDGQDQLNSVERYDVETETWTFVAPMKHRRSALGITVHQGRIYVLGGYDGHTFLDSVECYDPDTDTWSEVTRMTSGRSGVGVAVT

| Compound | Ki |
| --- | --- |
| CC1(NC(=O)COc2ccc3ccc(C(CC(=O)O)c4ccc5c(c4)OCO5)cc3c2)CCCCC1 (centres unmarked) [6f, 3-(benzo[d][1,3]dioxol-5-yl)-3-(7-(2-((1-methylcyclohexyl)amino)-2-oxoethoxy)naphthalen-2-yl)propanoic acid] | 0.477 ± 0.07 µM |
| COc1ccc(C(CC(=O)O)c2ccc3ccc(OCC(=O)NC4CCCCCC4)cc3c2)cc1 (centres unmarked) [2d, 3-(7-(2-(Cycloheptylamino)-2-oxoethoxy)naphthalen-2-yl)-3-(4-methoxyphenyl)propanoic acid] | 0.032 ± 0.03 µM |
| O=C(O)CCc1ccc2ccc(OCC(=O)NC3CCCCC3)cc2c1 [1a, 3-(7-(2-(Cyclohexylamino)-2-oxoethoxy)naphthalen-2-yl)propanoic acid] | 14 ± 0.8 µM |
| Cc1cc(C)c(C)c(NC(=O)COc2ccc3ccc(CCC(=O)O)cc3c2)c1C [1g, 3-(7-(2-Oxo-2-((2,3,5,6-tetramethylphenyl)amino)ethoxy)naphthalen-2-yl)propanoic acid] | 196 ± 24 µM |
| O=C(O)CC(c1ccc2c(c1)OCO2)c1ccc2ccc(OCC(=O)N[C@H]3C[C@@H]4CC[C@H]3C4)cc2c1 (stereo partly drawn) [5a, 3-(benzo[d][1,3]dioxol-5-yl)-3-(7-(2-(((1S,2S,4R)-bicyclo[2.2.1]heptan-2-yl)amino)-2-oxoethoxy)naphthalen-2-yl)propanoic acid] | 0.02 ± 0.003 µM |
| CC(C)Oc1ccc(C(CC(=O)O)c2ccc3ccc(OCC(=O)NC4CCCCCC4)cc3c2)cc1 (centres unmarked) [2f, 3-(7-(2-(Cycloheptylamino)-2-oxoethoxy)naphthalen-2-yl)-3-(4-isopropoxyphenyl)propanoic acid] | 0.101 ± 0.005 µM |
| O=C(O)CC(c1ccc2c(c1)OCO2)c1ccc2ccc(OCC(=O)NC3CCCCC3)cc2c1 (centres unmarked) [3f, 3-(benzo[d][1,3]dioxol-5-yl)-3-(7-(2-(cyclohexylamino)-2-oxoethoxy)naphthalen-2-yl)propanoic acid] | 0.059 ± 0.006 µM |
| O=C(O)CC(c1ccc2c(c1)CCO2)c1ccc2ccc(OCC(=O)NC3CCCCC3)cc2c1 (centres unmarked) [3i, 3-(7-(2-(cyclohexylamino)-2-oxoethoxy)naphthalen-2-yl)-3-(2,3-dihydrobenzofuran-5-yl)propanoic acid] | 0.082 ± 0.008 µM |
| O=C(O)CC(c1ccc2c(c1)OC(F)(F)O2)c1ccc2ccc(OCC(=O)NC3CCCCCC3)cc2c1 (centres unmarked) [2r, 3-(7-(2-(cycloheptylamino)-2-oxoethoxy)naphthalen-2-yl)-3-(2,2-difluorobenzo[d][1,3]dioxol-5-yl)propanoic acid] | 0.034 ± 0.005 µM |
| Cc1cc2c(cc1C(CC(=O)O)c1ccc3ccc(OCC(=O)NC4C=CCCC4)cc3c1)OCCO2 (centres unmarked) [4i, 3-(7-(2-(cyclohex-2-en-1-ylamino)-2-oxoethoxy)naphthalen-2-yl)-3-(7-methyl-2,3-dihydrobenzo[b][1,4]dioxin-6-yl)propanoic acid] | 0.017 ± 0.003 µM |
| Cc1ccc(Cl)cc1C(CC(=O)O)c1ccc2ccc(OCC(=O)NC3C=CCCC3)cc2c1 (centres unmarked) [4h, 3-(5-Chloro-2-methylphenyl)-3-(7-(2-(cyclohex-2-en-1-ylamino)-2-oxoethoxy)naphthalen-2-yl)propanoic acid] | 0.048 ± 0.005 µM |
| COc1cc(C(CC(=O)O)c2ccc3ccc(OCC(=O)NC4CCCCCC4)cc3c2)cc2nnn(C)c12 (centres unmarked) [2o, 3-(7-(2-(cycloheptylamino)-2-oxoethoxy)naphthalen-2-yl)-3-(7-methoxy-1-methyl-1H-benzo[d][1,2,3]triazol-5-yl)propanoic acid] | 0.0035 ± 0.0006 µM |
| O=C(O)CC(c1ccc2c(c1)OCO2)c1ccc2ccc(OCC(=O)Nc3ccccc3)cc2c1 (centres unmarked) [6l, 3-(benzo[d][1,3]dioxol-5-yl)-3-(7-(2-oxo-2-(phenylamino)ethoxy)naphthalen-2-yl)propanoic acid] | 1.88 µM |
| O=C(O)CC(c1ccc2c(c1)OCO2)c1ccc2ccc(OCC(=O)NC3CCCC3)cc2c1 (centres unmarked) [6d, 3-(benzo[d][1,3]dioxol-5-yl)-3-(7-(2-(cyclopentylamino)-2-oxoethoxy)naphthalen-2-yl)propanoic acid] | 0.062 ± 0.005 µM |
| O=C(O)CC(c1ccc2ccc(OCC(=O)NC3CCCCCC3)cc2c1)c1cc2c(cc1Cl)OCO2 (centres unmarked) [2z, 3-(6-chlorobenzo[d][1,3]dioxol-5-yl)-3-(7-(2-(cycloheptylamino)-2-oxoethoxy)naphthalen-2-yl)propanoic acid] | 0.009 ± 0.002 µM |
| Cc1ccc(Cl)cc1C(CC(=O)O)c1ccc2ccc(OCC(=O)NC3CCCCCC3)cc2c1 (centres unmarked) [2v, 3-(5-chloro-2-methylphenyl)-3-(7-(2-(cycloheptylamino)-2-oxoethoxy)naphthalen-2-yl)propanoic acid] | 0.097 ± 0.013 µM |
| O=C(O)CC(c1ccc2c(c1)OCO2)c1ccc2ccc(OCC(=O)N[C@H]3CC[C@@H](C(F)(F)F)CC3)cc2c1 (stereo partly drawn) [6j, 3-(benzo[d][1,3]dioxol-5-yl)-3-(7-(2-oxo-2-((cis-4-(trifluoromethyl)cyclohexyl)amino)ethoxy)naphthalen-2-yl)propanoic acid] | 0.045 ± 0.001 µM |
| O=C(O)CC(c1ccc2c(c1)OCO2)c1ccc2ccc(OCC(=O)NC3CCCCCC3)cc2c1 (centres unmarked) [2m, 3-(benzo[d][1,3]dioxol-5-yl)-3-(7-(2-(cycloheptylamino)-2-oxoethoxy)naphthalen-2-yl)propanoic acid] | 0.023 ± 0.002 µM |
| Cc1c(Cl)cccc1C(CC(=O)O)c1ccc2ccc(OCC(=O)NC3C=CCCC3)cc2c1 (centres unmarked) [4c, 3-(3-Chloro-2-methylphenyl)-3-(7-(2-(cyclohex-2-en-1-ylamino)-2-oxoethoxy)naphthalen-2-yl)propanoic acid] | 0.038 ± 0.006 µM |
| COc1ccc(C(CC(=O)O)c2ccc3ccc(OCC(=O)NC4CCCCC4)cc3c2)c(C)c1 (centres unmarked) [3b, 3-(7-(2-(cyclohexylamino)-2-oxoethoxy)naphthalen-2-yl)-3-(4-methoxy-2-methylphenyl)propanoic acid] | 0.054 µM |
| O=C(O)CCc1ccc2ccc(OCC(=O)NN3CCOCC3)cc2c1 [1c, 3-(7-(2-Morpholinoamino-2-oxoethoxy)naphthalen-2-yl)propanoic acid] | 268 ± 29 µM |
| CCn1nnc2c(C)c(C(CC(=O)O)c3ccc4ccc(OCC(=O)NC5CCCCCC5)cc4c3)ccc21 (centres unmarked) [2p, 3-(7-(2-(cycloheptylamino)-2-oxoethoxy)naphthalen-2-yl)-3-(1-ethyl-4-methyl-1H-benzo[d][1,2,3]triazol-5-yl)propanoic acid] | 0.0059 ± 0.0007 µM |
| Cc1cc(C)c(NC(=O)COc2ccc3ccc(CCC(=O)O)cc3c2)c(C)c1 [1f, 3-(7-(2-(Mesitylamino)-2-oxoethoxy)naphthalen-2-yl)propanoic acid] | 22 ± 0.8 µM |
| Cc1cc2c(cc1C(CC(=O)O)c1ccc3ccc(OCC(=O)NC4CCCCCC4)cc3c1)OC(F)(F)O2 (centres unmarked) [2w, 3-(7-(2-(cycloheptylamino)-2-oxoethoxy)naphthalen-2-yl)-3-(2,2-difluoro-6-methylbenzo[d][1,3]dioxol-5-yl)propanoic acid] | 0.014 ± 0.002 µM |
| Cc1cc2c(cc1C(CC(=O)O)c1ccc3ccc(OCC(=O)NC4C=CCCC4)cc3c1)OC(F)(F)O2 (centres unmarked) [4l, 3-(7-(2-(cyclohex-2-en-1-ylamino)-2-oxoethoxy)naphthalen-2-yl)-3-(2,2-difluoro-6-methylbenzo[d][1,3]dioxol-5-yl)propanoic acid] | 0.016 ± 0.005 µM |
| O=C(O)CC(c1ccc2c(c1)OC(F)(F)O2)c1ccc2ccc(OCC(=O)NC3CCCCC3)cc2c1 (centres unmarked) [3k, 3-(7-(2-(cyclohexylamino)-2-oxoethoxy)naphthalen-2-yl)-3-(2,2-difluorobenzo[d][1,3]dioxol-5-yl)propanoic acid] | 0.052 ± 0.003 µM |
